A word on the IC50: it is the point on the concentration scale where inhibition reaches its midpoint.

Structures are written as SMILES.

The values below come from BindingDB's records for doi:10.1016/j.bioorg.2015.02.009 (Kyushu Institute of Technology, 2015).

Common to all, as to assay: HDAC Enzyme Activity Assay
For one assay, the target named is Histone deacetylase 1 (Homo sapiens, UniProt Q13547). On the procedure:
(§1) For the enzyme assay, 10 µL of the enzyme fraction was added to 1 µL of fluorescent substrate (2 mM Ac-KGLGK(Ac)-MCA) and 9 µL of histone deacetylase buffer, and the mixture was incubated at 37 °C for 30 min. The reaction was stopped by the addition of 30 µL of trypsin (20 mg/mL) and incubated at 37 °C for 15 min. The released amino methyl coumarin (AMC) was measured using a fluorescence plate reader. DTT was added simultaneously with drugs to the enzyme solutions

In the next assay the target is Histone deacetylase 4 (Homo sapiens, UniProt P56524). The protocol: as §1
Chain of Histone deacetylase 4 (P56524 whole entry): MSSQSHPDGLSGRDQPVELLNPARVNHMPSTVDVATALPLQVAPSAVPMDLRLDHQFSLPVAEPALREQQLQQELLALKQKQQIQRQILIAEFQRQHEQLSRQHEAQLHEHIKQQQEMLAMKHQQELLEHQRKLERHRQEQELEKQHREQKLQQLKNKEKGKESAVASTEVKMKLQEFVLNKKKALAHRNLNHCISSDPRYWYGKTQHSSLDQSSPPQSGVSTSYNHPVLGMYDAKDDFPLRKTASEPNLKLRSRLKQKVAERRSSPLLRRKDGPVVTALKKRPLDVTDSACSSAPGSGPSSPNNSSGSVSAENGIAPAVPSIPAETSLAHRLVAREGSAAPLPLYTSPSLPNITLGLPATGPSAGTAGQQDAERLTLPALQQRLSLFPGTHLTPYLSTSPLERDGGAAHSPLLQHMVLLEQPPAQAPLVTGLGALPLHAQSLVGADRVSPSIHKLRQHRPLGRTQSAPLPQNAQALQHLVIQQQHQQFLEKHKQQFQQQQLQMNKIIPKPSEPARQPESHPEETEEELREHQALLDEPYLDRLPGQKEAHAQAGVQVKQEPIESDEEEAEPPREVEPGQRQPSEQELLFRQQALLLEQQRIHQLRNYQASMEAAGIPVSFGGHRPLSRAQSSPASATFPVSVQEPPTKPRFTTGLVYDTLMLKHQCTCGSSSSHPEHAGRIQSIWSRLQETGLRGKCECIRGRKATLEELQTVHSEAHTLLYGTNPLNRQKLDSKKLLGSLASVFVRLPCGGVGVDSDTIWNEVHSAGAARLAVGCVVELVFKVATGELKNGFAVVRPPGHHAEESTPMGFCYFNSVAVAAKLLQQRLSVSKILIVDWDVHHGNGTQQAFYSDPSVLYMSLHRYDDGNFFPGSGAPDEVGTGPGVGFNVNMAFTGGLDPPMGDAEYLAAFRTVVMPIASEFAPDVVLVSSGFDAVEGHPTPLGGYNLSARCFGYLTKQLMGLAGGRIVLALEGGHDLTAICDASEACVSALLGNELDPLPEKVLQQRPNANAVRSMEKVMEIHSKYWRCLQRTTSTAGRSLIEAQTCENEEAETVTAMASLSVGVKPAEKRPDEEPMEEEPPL
A further assay concerns the target T1, Histone deacetylase 6 (Mus musculus, UniProt Q9Z2V5).
T1 sequence (Q9Z2V5 whole entry): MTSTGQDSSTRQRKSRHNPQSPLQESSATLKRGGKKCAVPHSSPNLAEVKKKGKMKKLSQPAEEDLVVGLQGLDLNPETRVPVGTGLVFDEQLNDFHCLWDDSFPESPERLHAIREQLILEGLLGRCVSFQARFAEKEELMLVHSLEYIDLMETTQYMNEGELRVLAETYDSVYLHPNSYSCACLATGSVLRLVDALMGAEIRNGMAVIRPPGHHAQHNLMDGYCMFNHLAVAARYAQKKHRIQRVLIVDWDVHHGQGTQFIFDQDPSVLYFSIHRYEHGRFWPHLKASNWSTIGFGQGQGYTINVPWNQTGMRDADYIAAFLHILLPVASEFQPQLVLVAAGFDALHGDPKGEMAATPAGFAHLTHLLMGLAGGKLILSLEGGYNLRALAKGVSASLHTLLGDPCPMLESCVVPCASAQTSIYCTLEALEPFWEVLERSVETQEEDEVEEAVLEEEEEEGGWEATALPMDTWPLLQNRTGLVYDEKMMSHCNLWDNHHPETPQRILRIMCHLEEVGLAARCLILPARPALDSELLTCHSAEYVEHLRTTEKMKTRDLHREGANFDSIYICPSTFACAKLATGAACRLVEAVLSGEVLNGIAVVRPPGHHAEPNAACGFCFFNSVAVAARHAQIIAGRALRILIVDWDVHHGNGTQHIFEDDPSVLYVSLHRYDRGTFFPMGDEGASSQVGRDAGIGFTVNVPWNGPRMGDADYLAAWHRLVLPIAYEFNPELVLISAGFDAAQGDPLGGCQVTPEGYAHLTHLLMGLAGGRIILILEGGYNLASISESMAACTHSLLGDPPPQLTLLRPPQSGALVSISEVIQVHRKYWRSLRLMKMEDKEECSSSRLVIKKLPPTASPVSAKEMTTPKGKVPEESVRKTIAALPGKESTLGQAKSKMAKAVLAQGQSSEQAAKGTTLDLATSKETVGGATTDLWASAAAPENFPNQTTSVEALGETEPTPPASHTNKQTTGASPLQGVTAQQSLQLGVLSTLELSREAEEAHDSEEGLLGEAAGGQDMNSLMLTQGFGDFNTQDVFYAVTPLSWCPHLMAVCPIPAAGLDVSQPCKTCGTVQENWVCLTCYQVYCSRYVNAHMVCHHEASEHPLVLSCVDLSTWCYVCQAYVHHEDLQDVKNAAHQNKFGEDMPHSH
On the procedure: as §1

Chain of Histone deacetylase 1 (Q13547 whole entry): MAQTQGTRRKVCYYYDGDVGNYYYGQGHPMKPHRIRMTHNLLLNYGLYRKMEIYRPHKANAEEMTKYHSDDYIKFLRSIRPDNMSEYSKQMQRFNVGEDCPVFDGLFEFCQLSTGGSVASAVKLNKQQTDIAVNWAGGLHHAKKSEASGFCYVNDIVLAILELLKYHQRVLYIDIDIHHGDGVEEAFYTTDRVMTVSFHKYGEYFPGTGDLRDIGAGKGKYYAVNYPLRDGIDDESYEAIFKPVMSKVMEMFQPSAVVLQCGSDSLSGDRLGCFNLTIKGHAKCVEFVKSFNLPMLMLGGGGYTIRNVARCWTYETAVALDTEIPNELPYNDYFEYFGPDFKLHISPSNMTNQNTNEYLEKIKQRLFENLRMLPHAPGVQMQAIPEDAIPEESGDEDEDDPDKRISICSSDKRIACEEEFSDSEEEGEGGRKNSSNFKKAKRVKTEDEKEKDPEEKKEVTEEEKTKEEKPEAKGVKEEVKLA

Consider `O=C(CCCCC[C@H](NC(=O)OCc1ccccc1)C(=O)Nc1cccc2cccnc12)NO` [(S)-benzyl 8-(hydroxyamino)-1,8-dioxo-1-(quinolin-8-ylamino)octan-2-ylcarbamate], for which the results for the IC50 on Histone deacetylase 1, on Histone deacetylase 4 and against Histone deacetylase 6 were 10 nM, 11 nM and 45 nM, respectively.
On the same counts, the results for `O=C(NC(CCCCCSSCCCCC[C@H](NC(=O)OCc1ccccc1)C(=O)Nc1cccc2cccnc12)C(=O)Nc1cccc2cccnc12)OCc1ccccc1` (stereo partly drawn) [(Z-L-Am7(S-)-QA)2 (4)] are 8.2 nM, 3.4 nM and 7.5 nM.
On the same counts, the results for `CC(=O)SCCCCC[C@H](NC(=O)OCc1ccccc1)C(=O)Nc1cccc2cccnc12` [Z-L-Am7(Ac)-QA (1)] are 47 nM, 18 nM and 34 nM.
Consider `COCCOCC(=O)SCCCCC[C@H](NC(=O)OCc1ccccc1)C(=O)Nc1cccc2cccnc12` [Z-L-Am7(AcEtMe)-QA (2)], for which the IC50 was 19 nM on Histone deacetylase 1, 18 nM against Histone deacetylase 4 and 29 nM against Histone deacetylase 6.
For `O=C(N[C@@H](CCCCCSSCCO)C(=O)Nc1cccc2cccnc12)OCc1ccccc1` [Z-L-Am7(betaMe)-QA (3)], in that order: 4.9 nM, 2 nM and 3.2 nM.
